Columns and labels:
A-673 cells = format: cell-based
Procedure: Cell viability was measured 48 hours later using Cell Titer-Glo.

TRPC4 = biological target: T1, TRPC4 (Homo sapiens, UniProt Q9UBN4); experiment: Electrophysiology (QPatch-HT automated patch clamp, voltage ramp); format: cell-based; details: 10 μM ML204 + 5 μM englerin A; Dox-induced TRPC4
T1 construct: host or cells: Flp-In T-REx-293 (called HEK293T with Dox-inducible TRPC4)
T1 sequence (Q9UBN4 1-977): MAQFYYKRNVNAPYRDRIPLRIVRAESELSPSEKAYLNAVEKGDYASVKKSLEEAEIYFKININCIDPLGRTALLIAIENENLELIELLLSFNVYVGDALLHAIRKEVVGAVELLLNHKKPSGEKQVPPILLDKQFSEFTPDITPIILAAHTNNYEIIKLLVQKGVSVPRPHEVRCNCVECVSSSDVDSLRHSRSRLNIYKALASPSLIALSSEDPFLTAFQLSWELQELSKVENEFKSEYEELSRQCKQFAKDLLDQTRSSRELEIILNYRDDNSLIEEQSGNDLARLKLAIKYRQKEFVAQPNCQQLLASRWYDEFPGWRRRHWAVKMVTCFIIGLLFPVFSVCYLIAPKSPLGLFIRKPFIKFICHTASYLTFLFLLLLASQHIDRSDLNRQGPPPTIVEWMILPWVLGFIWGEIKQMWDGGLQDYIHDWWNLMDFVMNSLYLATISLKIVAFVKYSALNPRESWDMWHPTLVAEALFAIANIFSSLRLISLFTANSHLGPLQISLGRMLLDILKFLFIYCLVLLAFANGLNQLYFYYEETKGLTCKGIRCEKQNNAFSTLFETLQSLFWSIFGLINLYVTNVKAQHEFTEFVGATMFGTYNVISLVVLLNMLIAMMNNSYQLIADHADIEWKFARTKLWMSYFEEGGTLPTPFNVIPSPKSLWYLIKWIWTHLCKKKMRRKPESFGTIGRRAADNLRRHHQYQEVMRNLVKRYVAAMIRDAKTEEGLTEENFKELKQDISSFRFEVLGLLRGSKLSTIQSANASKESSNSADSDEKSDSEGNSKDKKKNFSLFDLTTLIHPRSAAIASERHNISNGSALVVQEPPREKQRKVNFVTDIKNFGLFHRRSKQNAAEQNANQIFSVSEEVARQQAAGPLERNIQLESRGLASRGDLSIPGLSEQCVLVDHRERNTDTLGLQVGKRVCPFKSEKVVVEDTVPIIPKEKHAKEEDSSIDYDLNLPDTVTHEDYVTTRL
Procedure: TRPC4 currents were recorded from HEK293T cells with Dox-inducible TRPC4 on the QPatch-HT automated patch clamp system at room temperature (21–24°C) (Biolin Scientific, Stockholm, Sweden). The internal solution contained (in mM): 150 Cs-aspartate, 2 MgCl2, 0.36 CaCl2, 1 EGTA, 4 MgATP, 0.3 NaGTP and 10 HEPES, pH = 7.20 with CsOH (calculated free [Ca^2+] = 100 nM using WebMaxChelator http://www.stanford.edu/~cpatton/maxc.html, assuming an ionic strength of 0.16). The standard external solution contained (in mM): 150 NaCl, 4 KCl, 2 CaCl2, 1 MgCl2, 10 HEPES and 10 D-glucose (pH = 7.40) with NaOH. Currents were elicited by a voltage ramp protocol consisting of a 50 ms step to −100 mV, followed by a 200 ms ramp to +100 mV and 10 ms at +100 mV. Voltage ramps were applied every 10 s from a holding potential of 0 mV. Results were expressed as means ± S.E.M.

Cc1cc(N2CCCCC2)nc2ccccc12 [ML204]
doses of ML204 alone at which A-673 cell growth is impaired (A-673 cells): higher than 50 μM
rescue of growth inhibition by englerin A (A-673 cells; 50 μM ML204 with 50 nM englerin A, A-673 cells): partially rescued
effect on englerin A induced inward and outward currents (TRPC4): inhibited
